Measurements published in patent publication US20010000513A1, “Biphenyl butyric acids and their derivatives as inhibitors of matrix metalloproteinases” (priority 1996, published 2001).

Assays:
[1] = tested on: Female Lewis rats sensitized to streptococcal cell walls; experiment: Streptococcal Cell Wall Model (SCW), paw swelling; format: in vivo; settings: rat SCW flare
Experimental: Female Lewis rats (125-150 g) are sensitized to the 100 P preparation of streptococcal cell walls (obtained from Lee Labs, Greyson, Ga.) with an intra-articular injection of 10 μL SCW containing 6 μg of the cell wall particles into one of the ankle joints. The contralateral ankle joint is injected with an equal volume of saline. Twenty-one days later, animals are placed in treatment groups (7 per group) according to their immediate response to the intra-articular injection of SCW (to obtain groups with equivalent responses). A control group is injected with saline. Each animal is then lightly anesthetized with ether, the paw volumes of each hind paw are determined by mercury plethysmography, and the animals are injected IV via the tail vein with a 0.25-mL dose of SCW containing 100 μg of the 100 P cell wall particles. Each group of rats receives an oral dose of compound for 7 days in an appropriate dosing vehicle beginning on Day 21. Paw swelling is determined by subtracting the paw volume of the saline injected ankle from the SCW sensitized ankle. Percent inhibition is calculated by comparing the compound treatment group with the control group. A one-way analysis of variance with a Dunnett's test for multiple comparisons is used for determination of statistical power. Rats were sensitized 21 days prior to initiating the flare response by systemic SCW. […] Paw volume was measured 24 hours after the first administration. Numbers represent the mean percent inhibition of swelling from 10 animals/treatment group.

[2] = tested on: Male Swiss-Webster mice, 0.6% acetic acid i.p.; experiment: Acetic Acid-Induced Hyperalgesia Model, writhing; format: in vivo; settings: for % Inhibition (writhing): 1 hour before acetic acid
Experimental: Treatment groups (n=8) were divided so that 2 animals were placed into each of four 4″×4″×4″ adjacent plexiglass containers. Seven minutes after acid, writhing motions (abdominal contractions, concave arching of the back, and/or hindleg stretching) were tallied for 5 minutes. The ID40 value was calculated by linear regression analysis.

[3] = tested on: male Wistar rats, polyarthritis induced by Mycobacterium butyricum; experiment: Adjuvant Arthritis Model, hind paw edema; format: in vivo; settings: P <0.001
Experimental: Polyarthritis was induced by a modified method of the procedure developed by Chang, et al., Arthritis and Rheum., 1980;23:62. Briefly, male Wistar rats (100-115 g each) received subcutaneous injection of 0.1 mL of 10 mg/mL (or 1 mg) Mycobacterium butyricum suspended in paraffin oil in the distal third of the tail, using a glass tuberculin syringe and 25 gauge needle. M. Butyricum suspension was achieved by sonication in paraffin oil for 10 minutes with the vessel immersed in ice bath. Rates were randomized after injection and placed in cages. […] The rest were randomized and separated into dosing (test) groups (N=10 per group) and control (vehicle) group (N=20). The hind paws volume and the weights of each animal in each group was recorded and served as the initial values for the study. Hind paw swelling was assessed using mercury plethysmography beginning on Day 12 and every other day till Day 22 (final assessment).
The dose volume was 10 mL/kg PO. Animals were dosed twice daily for 10 days starting on Day 12. Also, hind paw volumes were measured on Days 12, 14, 16, 18, 20, and 22 as stated above. The results are reported as % inhibition of delta edema on Day 22. Delta edema is the difference in footpad edema between the day in which animals are assessed and that on Day 12 of the study. The percent inhibition is based on a comparison of the treatment groups to the vehicle group.

[4] = tested on: mice sensitized with a fragment of mouse myelin basic protein to induce EAE; experiment: Experimental Autoimmune Encephalomyelitis (EAE); format: in vivo
Experimental: Compounds were administered by oral route to mice sensitized with a fragment of mouse myelin basic protein to induce EAE. Mice were dosed daily for 21 days beginning 4 hours before sensitization on day one. EAE responses of compound treated groups were compared to those of a control group of mice sensitized identically and a sham-sensitized group treated with vehicle. The values reported in Table 2 include responses during compound treatment only.
Sensitization Female mice [PL/J(FI)×SJL/J, Jackson Labs], 11 weeks old, were sensitized s.c. (0.05 cc×2) at the base of the tail with an emulsion containing equal parts of mouse myelin basic protein (MBP) fragment (amino acids 1-9 of the N-terminus of MBP) in saline and Difco Complete Freund's Adjuvant (CFA) fortified with heat killed desiccated Mycobacteria tuberculosis (MT). Each mouse received 300 μg of MBP fragment (230 μg free base) and 200 μg MT followed by retrobulbar (IV) injection of 200 ng of B. pertussis toxin in 0.2 cc of saline. Two days later mice receive a second injection of B. pertussis toxin.
Neurological Assessment Animals were weighed and evaluated for symptoms of EAE before and frequently after sensitization. EAE score: (0.5=slight limp tail, 1=limp tail or slow to right, 1.5=slight limp tail and slow to right, 2=paresis/mild paralysis or incontinence, 2.5=mild paralysis and slow to right or complete paralysis (one hind limb), 3=hind limb paralysis (both), 3.5=hind limb paralysis (both) and limp torso; 4=additional fore limb paralysis, 4.5=head movement only, 5=moribund, death after previous EAE symptoms). Evaluators were blinded as to compound treatments and previous behavioral scores.
Disease symptoms are compared among groups for EAE severity, incidence, time to onset, cumulative score, and deaths. Peak EAE score: the mean of the highest score for each mouse in a group, independent of duration of symptoms; EAE incidence: the mean number of mice showing symptoms of EAE, defined as having EAE scores on any 3 consecutive days that total “≧3.0”. EAE deaths: an animal that died must have presented previous evidence of an EAE score greater than 0.5; EAE onset: the first of a 3-day series scoring a total of ≧3.0.
A Cumulative EAE score is calculated for each animal. A mean of all animals' cumulative scores is then determined for each day.
Experimental groups were assumed to be similar and were compared for statistical significance by a 2-tailed T-Test (p≦0.05).
Compound was homogenized manually with an aliquot of warm vehicle (1.0% hydroxypropyl-methylcellulose [Sigma] in water) in glass mortar tubes and homogenizing pestle. The smooth compound paste was gradually suspended in vehicle. Mice were dosed with compound and/or vehicle, 10 mL/kg in groups of ten. A sham-sensitized group was similarly dosed with vehicle.

Q: For O=C(O)CCC(=NO)c1ccc(-c2ccc(Cl)cc2)cc1 [Example 1, 4-(4′-Chloro-biphenyl−4-yl)-4-hydroxyimino-butyric acid], which “% Inhibition at Day 4 (paw swelling)” value ([1]; 3 mg/kg bid oral) is on record?
A: 71%

Q: What about the “% Inhibition at Day 4 (paw swelling)” value ([1]; 10 mg/kg bid oral) of the same compound?
A: 86%

Q: And the “% Inhibition at Day 4 (paw swelling)” value ([1]; 30 mg/kg bid oral)?
A: 86%

Q: And the “% Inhibition (writhing)” value ([2]; 0.03 mg/kg oral)?
A: 7%

Q: What about the “% Inhibition (writhing)” value ([2]; 0.1 mg/kg oral) of the same compound?
A: 26%

Q: And the “% Inhibition (writhing)” value ([2]; 0.3 mg/kg oral)?
A: 37%

Q: What about the “% Inhibition (writhing)” value ([2]; 1 mg/kg oral) of the same compound?
A: 41%

Q: What about the “% Inhibition (writhing)” value ([2]; 10 mg/kg oral) of the same compound?
A: 65%

Q: What about the ID40 ([2]; oral, calculated by linear regression analysis) of the same compound?
A: 0.65 mg/kg

Q: And the “% Inhibition of delta edema on Day 22” value ([3]; 3.0 mg/kg bid PO for 10 days from Day 12)?
A: 68.1%

Q: And the “% Inhibition of delta edema on Day 22” value ([3]; 10.0 mg/kg bid PO for 10 days from Day 12)?
A: 84.4%

Q: What about the “% Inhibition of delta edema on Day 22” value ([3]; 30.0 mg/kg bid PO for 10 days from Day 12) of the same compound?
A: 99.9%

Q: What about the “effect on EAE cumulative score” value ([4]; 50 mg/kg oral) of the same compound?
A: reduced the EAE cumulative score

Q: What about the “EAE Onset” value ([4]; 50 mg/kg oral daily for 21 days, control 12.2 ± 0.9, p ≦0.05 vs control) of the same compound?
A: 16.2 ± 1.0 days

Q: What about the “EAE Cumulative Score” value ([4]; 50 mg/kg oral daily for 21 days, control 31.6 ± 1.7, p ≦0.05 vs control) of the same compound?
A: 17.9 ± 2.8

Q: What about the “EAE Deaths” value ([4]; 50 mg/kg oral daily for 21 days, during compound treatment, control 2/10) of the same compound?
A: 0/10

Q: What about the “EAE Incidence” value ([4]; 50 mg/kg oral daily for 21 days, mice with EAE/group, control 10/10) of the same compound?
A: 9/10

Q: And the “Peak EAE Score” value ([4]; 50 mg/kg oral daily for 21 days, responses during compound treatment only, control 4.2 ± 0.1)?
A: 3.8 ± 0.3

Q: What about the “EAE-induced deaths to Day 43” value ([4]; 50 mg/kg oral, to Day 43) of the same compound?
A: no EAE-induced deaths

Q: And the “delay of the onset of EAE” value ([4]; dosed at 50 mg/kg oral)?
A: 4 days

Q: For O=C(O)CCC(=NO)c1ccc(-c2ccc(Br)cc2)cc1 [Example 2, 4-(4′-Bromo-biphenyl-4-yl)-4-hydroxyimino-butyric acid], which melting point is on record?
A: 175 to 176 °C

Q: Which melting point does the source give for CN(C)N=C(CCC(=O)O)c1ccc(-c2ccc(Cl)cc2)cc1 [Example 3, 4-(4′-Chloro-biphenyl-4-yl)-4-(dimethylhydrazono)-butyric acid] here?
A: 158 to 160 °C

Q: For CON=C(CCC(=O)[O-])c1ccc(-c2ccc(Cl)cc2)cc1.[Na+] [Example 8, 4-(4′-Chloro-biphenyl-4-yl)-4-methoxyimino-butyric acid, sodium salt], which melting point is on record?
A: 234 to 238 °C

Q: With CON=C(CCC(=O)O)c1ccc(-c2ccc(Cl)cc2)cc1 [Example 9, 4-(4′-Chloro-biphenyl-4-yl)-4-methoxyimino-butyric acid] as the compound, how does the melting point read?
A: 183 to 186 °C

Q: For O=C(O)CCC(=NO)c1ccc(-c2ccc(Cl)cc2F)cc1 [Example 10, 4-(4′-Chloro-2′-fluoro-biphenyl-4-yl)-4-hydroxyimino-butyric acid], which melting point is on record?
A: 147.5 to 149.5 °C

Q: For O=C(O)CCC(=NO)c1ccc(-c2ccccc2F)cc1 [Example 11, 4-(2′-Fluoro-biphenyl-4-yl)-4-hydroxyimino-butyric acid], which melting point is on record?
A: 150 to 151.5 °C

Q: Which melting point does the source give for Cc1ccc(-c2ccc(C(CCC(=O)O)=NO)cc2)cc1 [Example 12, 4-Hydroxyimino-4-(4′-methyl-biphenyl-4-yl)-butyric acid] here?
A: 176.5 to 177.5 °C

Q: For COc1ccc(-c2ccc(C(CCC(=O)O)=NO)cc2)cc1 [Example 13, 4-Hydroxyimino-4-(4′-methoxy-biphenyl-4-yl)-butyric acid], which melting point is on record?
A: 157 to 160 °C

Q: Which melting point does the source give for N#Cc1ccc(-c2ccc(C(CCC(=O)O)=NO)cc2)cc1 [Example 14, 4-(4′-Cyano-biphenyl-4-yl)-4-hydroxyimino-butyric acid] here?
A: 157 to 159 °C

Q: With O=C(O)CCC(=NO)c1ccc(-c2cccc(F)c2)cc1 [Example 15, 4-(3′-Fluoro-biphenyl-4-yl)-4-hydroxyimino-butyric acid] as the compound, how does the melting point read?
A: 155 to 157 °C

Q: For O=C(O)CCC(=NO)c1ccc(-c2ccc(C(F)(F)F)cc2)cc1 [Example 16, 4-Hydroxyimino-4-(4′-trifluoromethyl-biphenyl-4-yl)-butyric acid], which melting point is on record?
A: 134 to 136 °C

Q: Which melting point does the source give for CSc1ccc(-c2ccc(C(CCC(=O)O)=NO)cc2)cc1 [Example 17, 4-Hydroxyimino-4-(4′-methylsulfanyl-biphenyl-4-yl)-butyric acid] here?
A: 162 to 164 °C

Q: With O=C1CCC(c2ccc(-c3ccc(Cl)cc3)cc2)=NO1 [Example 18, 3-(4′-Chloro-biphenyl-4-yl)-4,5-dihydro-6-oxo-6H-1,2-oxazine] as the compound, how does the melting point read?
A: 190 to 192 °C
